Results taken from patent publication US7816371B2, “Bicycloheteroaryl compounds as P2X7 modulators and uses thereof” (Renovis, Inc., priority 2006, dated 2010).
pIC50: −log10 of the molar value.

Molecular target: T1, P2X7 receptor (Homo sapiens, UniProt Q99572)
T1 construct: host or cells: THP-1 cells differentiated with LPS and IFN-γ
T1 sequence (Q99572 1-595): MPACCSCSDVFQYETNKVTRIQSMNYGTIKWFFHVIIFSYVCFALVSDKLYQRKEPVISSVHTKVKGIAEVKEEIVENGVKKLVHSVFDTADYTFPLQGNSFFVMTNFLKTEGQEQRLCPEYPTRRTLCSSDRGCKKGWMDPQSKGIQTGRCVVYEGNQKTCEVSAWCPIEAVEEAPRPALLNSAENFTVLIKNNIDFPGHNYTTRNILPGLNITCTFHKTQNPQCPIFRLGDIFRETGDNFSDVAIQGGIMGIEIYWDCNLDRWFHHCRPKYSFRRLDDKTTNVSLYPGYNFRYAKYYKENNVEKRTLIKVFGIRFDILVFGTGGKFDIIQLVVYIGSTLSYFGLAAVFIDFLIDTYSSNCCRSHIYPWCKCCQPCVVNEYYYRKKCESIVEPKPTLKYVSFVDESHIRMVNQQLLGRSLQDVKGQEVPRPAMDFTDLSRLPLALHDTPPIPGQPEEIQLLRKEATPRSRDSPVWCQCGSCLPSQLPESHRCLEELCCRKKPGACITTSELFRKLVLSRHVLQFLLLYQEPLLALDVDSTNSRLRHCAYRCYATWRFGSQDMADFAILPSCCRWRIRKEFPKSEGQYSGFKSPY
Experiment: IL-1β release assay in differentiated THP-1 cells stimulated with BzATP (Example 9); % inhibition and IC50
Type: cell-based
Conditions: THP-1 cells differentiated with LPS and IFN-γ, 30 min pretreatment, BzATP 250 uM, IL-1β by ELISA
Experimental: The cells are then pretreated for 30 minutes with the compound of interest at the appropriate concentration in RPMI media containing 100 IU/mL penicillin, 100 ug/mL streptomycin. […] 30 uL of cell supernatant is then collected and IL-1β levels determined via ELISA (R&D systems Cat. # HSLB50) according to manufacturer's recommendations using the Tecan Safire plate reader. Background adjusted IL-1β levels of drug treated and non-treated cells are used to calculate the percent inhibition.
The compounds set forth in Table 1 were tested for activity in a cellular model as described herein.

Row | Compound | pIC50
1 | C[C@H](C(N)=O)n1ccc2c(NC(=O)Cc3cc(F)c(F)cc3F)cccc2c1=O [Compound 305] | 7.44
2 | O=C(Cc1ccc(Cl)cc1)Nc1cccc2c(=O)n(CCO)ccc12 [Compound 4] | 6.50
3 | O=C(Cc1ccc(Cl)c(Cl)c1)Nc1cccc2c(=O)n(CCO)ccc12 [Compound 8] | 7.52
4 | CC(C)[C@H](C(N)=O)n1ccc2c(NC(=O)[C@@H](C)c3ccc(Cl)cc3)cccc2c1=O [Compound 283] | 8.01
5 | O=C(Cc1ccc(Cl)c(Cl)c1)Nc1c(Cl)ccc2c(=O)n(CCO)ccc12 [Compound 248] | < 6.00
6 | COc1ccc(CC(=O)Nc2cccc3c(=O)n(CCO)ccc23)cc1 [Compound 2] | < 6.00
7 | O=C(Cc1ccc(Cl)cc1C(F)(F)F)Nc1cccc2c(=O)n(CCO)ccc12 [Compound 229] | 6.73
8 | C[C@H](C(N)=O)n1ccc2c(NC(=O)Cc3ccc(F)cc3C(F)(F)F)cccc2c1=O [Compound 295] | 6.73
9 | O=C(Nc1cccc2c(=O)n(CCO)ccc12)c1ccccc1 [Compound 1] | < 6.00
10 | C[C@H](C(=O)Nc1cccc2c(=O)n([C@H](C)C(N)=O)ccc12)c1ccc(Cl)cc1 [Compound 263] | 7.88
11 | C[C@H](C(N)=O)n1ccc2c(NC(=O)Cc3ccc(Cl)c(C(F)(F)F)c3)cccc2c1=O [Compound 238, (R)-2-{5-[2-(4-Chloro-3-trifluoromethyl-phenyl)-acetylamino]-1-oxo-1H-isoquinolin-2-yl}-propionamide] | 8.90
12 | C[C@H](C(=O)Nc1cccc2c(=O)n([C@H](C)C(=O)O)ccc12)c1ccc(Cl)cc1 [Compound 322, (R)-2-{5-[(S)-2-(4-Chloro-phenyl)-propionylamino]-1-oxo-1H-isoquinolin-2-yl}-propionic acid] | 6.24
13 | C[C@H](C(N)=O)n1ccc2c(NC(=O)Cc3ccc(F)c(Br)c3)cccc2c1=O [Compound 307] | 7.73
14 | C[C@H](C(N)=O)n1ccc2c(NC(=O)Cc3ccc(F)c(Cl)c3)cccc2c1=O [Compound 301] | 8.45
15 | O=C(Cc1ccc(Cl)c(C(F)(F)F)c1)Nc1cccc2c(=O)n(C(CO)CO)ccc12 [Compound 81, 2-(4-Chloro-3-trifluoromethyl-phenyl)-N-[2-(2-hydroxy-1-hydroxymethyl-ethyl)-1-oxo-1,2-dihydro-isoquinolin-5-yl]-acetamide] | 7.56
16 | C[C@@H](C(N)=O)n1ccc2c(NC(=O)Cc3ccc(C(F)(F)F)cc3)cccc2c1=O [Compound 351] | 7.45
17 | CC(C)C[C@H](CO)n1ccc2c(NC(=O)Cc3ccc(Cl)c(Cl)c3)cccc2c1=O [Compound 275] | 7.70
18 | C[C@@H](C(N)=O)n1ccc2c(NC(=O)Cc3ccc(F)c(Cl)c3)cccc2c1=O [Compound 346] | 7.17
19 | NCC(CCl)Cn1ccc2c(NC(=O)Cc3ccc(Cl)c(Cl)c3)cccc2c1=O (centres unmarked) [Compound 259] | 6.68
20 | C[C@H](C(N)=O)n1ccc2c(NC(=O)Cc3ccc(Cl)cc3F)cccc2c1=O [Compound 290] | 8.12

Row | Compound | pIC50
21 | CC(C(=O)Nc1cccc2c(=O)n([C@H](C)C(N)=O)ccc12)c1cccc(C(F)(F)F)c1F (some centres unmarked) [Compound 337] | 8.04
22 | C[C@H](CO)n1ccc2c(NC(=O)Cc3ccc(F)c(Cl)c3)cccc2c1=O [Compound 329] | 6.69
23 | C[C@H](CO)n1ccc2c(NC(=O)Cc3ccc(F)c(C(F)(F)F)c3)c(Cl)ccc2c1=O [Compound 377, N-[6-Chloro-2-((R)-2-hydroxy-1-methyl-ethyl)-1-oxo-1,2-dihydro-isoquinolin-5-yl]-2-(4-fluoro-3-trifluoromethyl-phenyl)-acetamide] | 9.42
24 | O=C(Cc1ccc(Cl)c(Cl)c1)Nc1cccc2c(=O)n(C[C@H]3CCCN3)ccc12 [Compound 245] | 7.33
25 | O=C(Cc1cccc(C(F)(F)F)c1F)Nc1c(NCCO)ccc2c(=O)n(CCO)ccc12 [Compound 385, 2-(2-Fluoro-3-trifluoromethyl-phenyl)-N-[2-(2-hydroxy-ethyl)-6-(2-hydroxy-ethylamino)-1-oxo-1,2-dihydro-isoquinolin-5-yl]-acetamide] | < 6.00
26 | C[C@H](C(N)=O)n1ccc2c(NC(=O)Cc3cccc(C(F)(F)F)c3)cccc2c1=O [Compound 297] | 7.78
27 | C[C@H](C(N)=O)n1ccc2c(NC(=O)[C@H](C)c3ccc(Cl)cc3)cccc2c1=O [Compound 262] | 7.14
28 | C[C@H](CO)n1ccc2c(NC(=O)Cc3ccc(C(F)(F)F)cc3F)cccc2c1=O [Compound 359] | 7.37
29 | CC(C)(CO)n1ccc2c(NC(=O)Cc3ccc(C(F)(F)F)cc3F)cccc2c1=O [Compound 370] | 6.87
30 | O=C(Cc1ccc2c(c1)OCCO2)Nc1cccc2c(=O)n(CCO)ccc12 [Compound 63] | < 6.00
31 | C[C@H](C(=O)Nc1cccc2c(=O)n([C@H](C)C(N)=O)ccc12)c1ccc(Cl)c(Cl)c1 [Compound 268] | 8.41
32 | C[C@H](C(N)=O)n1ccc2c(NC(=O)Cc3ccc(F)c(F)c3)cccc2c1=O [Compound 303] | 7.81
33 | CC(C(=O)Nc1cccc2c(=O)n([C@@H](C)C(N)=O)ccc12)c1ccc(Cl)cc1 (some centres unmarked) [Compound 240] | 7.93
34 | C[C@H](C(N)=O)n1ccc2c(NC(=O)Cc3ccccn3)cccc2c1=O [Compound 309] | < 6.00
35 | C[C@@H](C(N)=O)n1ccc2c(NC(=O)Cc3ccc(C(F)(F)F)c(F)c3)cccc2c1=O [Compound 347] | 7.51
36 | O=C(Nc1cccc2c(=O)n(CCO)ccc12)c1ccc(C(F)(F)F)cc1C(F)(F)F [Compound 6] | 6.51
37 | CNCCn1ccc2c(NC(=O)Cc3ccc(Cl)c(C(F)(F)F)c3)cccc2c1=O [Compound 235, 2-(4-Chloro-3-trifluoromethyl-phenyl)-N-[2-(2-methylamino-ethyl)-1-oxo-1,2-dihydro-isoquinolin-5-yl]-acetamide] | 7.15
38 | O=C(Cc1cc(C(F)(F)F)ccc1Cl)Nc1cccc2c(=O)n(CCO)ccc12 [Compound 67] | < 6.00
39 | C[C@@H](CO)n1ccc2c(NC(=O)Cc3ccc(F)c(Cl)c3)cccc2c1=O [Compound 331] | 6.79
40 | C[C@H](C(N)=O)n1ccc2c(NC(=O)Cc3ccc(Cl)nc3)cccc2c1=O [Compound 312] | < 6.00

Row | Compound | pIC50
41 | CC(C(=O)Nc1cccc2c(=O)n([C@H](C)C(N)=O)ccc12)c1ccc(F)cc1 (some centres unmarked) [Compound 299] | 7.61
42 | C[C@@H](C(=O)Nc1cccc2c(=O)n([C@@H](C)CO)ccc12)c1ccc(Cl)c(Cl)c1 [Compound 317] | 7.03
43 | C[C@H](CO)n1ccc2c(NC(=O)Cc3ccc(C(F)(F)F)cc3)cccc2c1=O [Compound 319] | 7.60
44 | C[C@H](C(=O)Nc1cccc2c(=O)n([C@@H](C(N)=O)c3ccccc3)ccc12)c1ccc(Cl)c(Cl)c1 [Compound 278, (S)—N-[2-((R)-Carbamoyl-phenyl-methyl)-1-oxo-1,2-dihydro-isoquinolin-5-yl]-2-(3,4-dichloro-phenyl)-propionamide] | 7.24
45 | C[C@H](C(=O)Nc1cccc2c(=O)n([C@@H](C)C(N)=O)ccc12)c1ccc(Cl)cc1 [Compound 265] | 7.82
46 | C[C@@H](CO)n1ccc2c(NC(=O)Cc3ccc(F)c(C(F)(F)F)c3)cccc2c1=O [Compound 338] | 7.32
47 | C[C@@H](C(N)=O)n1ccc2c(NC(=O)Cc3cccc(C(F)(F)F)c3F)cccc2c1=O [Compound 349] | 7.31
48 | C[C@H](C(N)=O)n1ccc2c(NC(=O)Cc3cccc(C(F)(F)F)c3F)cccc2c1=O [Compound 285] | 8.18
49 | C[C@H](CO)n1ccc2c(NC(=O)Cc3cccc(C(F)(F)F)c3F)cccc2c1=O [Compound 324] | 7.66
50 | CC(C(=O)Nc1cccc2c(=O)n([C@@H](C)C(N)=O)ccc12)c1ccc(Cl)c(C(F)(F)F)c1 (some centres unmarked) [Compound 356] | 7.81
51 | C[C@@H](C(N)=O)n1ccc2c(NC(=O)Cc3ccc(Cl)c(C(F)(F)F)c3)cccc2c1=O [Compound 353] | 7.53
52 | C[C@H](C(N)=O)n1ccc2c(NC(=O)Cc3cccc(Cl)c3)cccc2c1=O [Compound 255] | 7.67
53 | C[C@H](C(N)=O)n1ccc2c(NC(=O)Cc3ccc(F)cc3F)cccc2c1=O [Compound 293] | 7.35
54 | CC(C(=O)Nc1cccc2c(=O)n(CCO)ccc12)c1ccc(Cl)c(C(F)(F)F)c1 (centres unmarked) [Compound 251] | 7.24
55 | C[C@H](C(N)=O)n1ccc2c(NC(=O)Cc3c(F)cccc3C(F)(F)F)cccc2c1=O [Compound 286] | 6.43
56 | C[C@@H](CO)n1ccc2c(NC(=O)Cc3ccc(C(F)(F)F)cc3)cccc2c1=O [Compound 318] | 6.88
57 | CC(C)(CO)n1ccc2c(NC(=O)Cc3cccc(C(F)(F)F)c3F)cccc2c1=O [Compound 368] | 7.22
58 | CC(C)C[C@H](CO)n1ccc2c(NC(=O)[C@@H](C)c3ccc(Cl)cc3)cccc2c1=O [Compound 271] | 7.22
59 | C[C@H](C(N)=O)n1ccc2c(NC(=O)Cc3ccc(Cl)cc3)cccc2c1=O [Compound 256] | 7.46
